{
  "source": "patent US8318297B2",
  "about": "“Titanate nanowire, titanate nanowire scaffold, and processes of making same” (Board of Trustees of the University of Arkansas, priority 2007, dated 2012)",
  "test": "Controlled release of crystal violet from nanowire scaffolds on Ti foil",
  "assay_type": "physicochemical",
  "settings": "for Release (%): crystal violet released from nanowire scaffolds on Ti, 10 mL fresh water",
  "method": "A piece of dried titanium foil (2.2 cm^2) that was coated with nanofiber scaffolds was soaked in 100 mL of 0.001 mol/L crystal violet (C25H30ClN3, as a simulated drug) solution for 12 hours at room temperature. Then, the foil was collected, rinsed with deionized water, dried at room temperature overnight, and placed in 10 mL of fresh water for releasing the crystal violet molecules. The released crystal violet was measured on the Beckman DU-530 UV-Visible Spectrometer. A piece of dried titanium foil (2.2 cm^2) pre-coated with the nanowire scaffolds was soaked in 100 mL of 0.001 mol/L crystal violet (C25H30ClN3, as a simulated drug) solution for 12 hrs at room temperature. Then, the foil was collected, rinsed with deionized water, dried at room temperature overnight, and was then placed in 10 mL of fresh water for releasing the crystal violet molecules. The released crystal violet was measured on the Beckman DU-530 UV-Visible Spectrometer.",
  "data": [
    {"compound": "CN(C)c1ccc(C(=C2C=CC(=[N+](C)C)C=C2)c2ccc(N(C)C)cc2)cc1", "note": "[Crystal violet, crystal violet]", "values": [
      {"measurement": "Release (%)", "setting": "time 0 hours", "value": 22.6, "unit": "%"},
      {"measurement": "Release (%)", "setting": "time 2 hours", "value": 82.0, "unit": "%"},
      {"measurement": "Release (%)", "setting": "time 2 hours, listed as model drug", "value": "~80", "unit": "%"},
      {"measurement": "Release (%)", "setting": "time 4 hours", "value": 95.0, "unit": "%"},
      {"measurement": "Release (%)", "setting": "time 6 hours", "value": 99.2, "unit": "%"},
      {"measurement": "Release (%)", "setting": "time 12 hours", "value": 100, "unit": "%"},
      {"measurement": "time at which the model drug's concentration reached a maximum", "setting": "release from nanowire scaffold on Ti foil", "value": 6, "unit": "h"}
    ]}
  ]
}
